Experimental data reported in ChEMBL document CHEMBL3885861, “Open TG-GATES”.

Organism: Rattus norvegicus
Experiment: Open TG-GATES - Regimen: Single
Type: toxicity, organism-based, Sprague-Dawley
Set-up: regimen Single, gender Male, age 6 weeks
Conditions: in vivo, po, route gavage; for APTT / Bas / Eos / Fbg / Hb / Ht / Lym / MCH / MCHC / MCV / Mono / Neu / PT / Plat / RBC / Ret / WBC: tissue Blood; for KIDNEY_L / KIDNEY_R / KIDNEY_TOTAL: tissue Kidney; for LIVER: tissue Liver; for A/G / ALP / ALT / AST / BUN / CRE / Ca / Cl / DBIL / GLC / IP / K / LDH / Na / PL / RALB / TBIL / TC / TG / TP / gamma-GTP: tissue Plasma
[1] = 60 mg/kg, 3 h, dose level Middle
[2] = 60 mg/kg, 6 h, dose level Middle
[3] = 60 mg/kg, 9 h, dose level Middle
[4] = 60 mg/kg, 24 h, dose level Middle
[5] = 200 mg/kg, 3 h, dose level High
[6] = 200 mg/kg, 6 h, dose level High
[7] = 200 mg/kg, 9 h, dose level High
[8] = 200 mg/kg, 24 h, dose level High

Cn1c(=O)c2[nH]cnc2n(C)c1=O.O [THEOPHYLLINE]
TERMINAL_BW [1]: 215.5 g
APTT [1]: 22.1 s
Bas [1]: 0%
Eos [1]: 1.2%
Fbg [1]: 306 mg/dL
Hb [1]: 12.6 g/dL
Ht [1]: 38.3%
Lym [1]: 68.6%
MCH [1]: 20.2 pg
MCHC [1]: 32.9%
MCV [1]: 61.6 fL
Mono [1]: 2.2%
Neu [1]: 26.4%
PT [1]: 15.4 s
Plat [1]: 117 x10_4/uL
RBC [1]: 622.6 x10_4/ul
Ret [1]: 7.6%
WBC [1]: 72.7 x10_2/uL
KIDNEY_L [1]: 1 g
KIDNEY_R [1]: 1 g
KIDNEY_TOTAL [1]: 1.9 g
LIVER [1]: 9.3 g
A/G [1]: 1.3
ALP [1]: 1415.2 IU/L
ALT [1]: 44.8 IU/L
AST [1]: 80.2 IU/L
BUN [1]: 13 mg/dL
CRE [1]: 0.2 mg/dL
Ca [1]: 10.2 mg/dL
Cl [1]: 108 meq/L
DBIL [1]: 0 mg/dL
GLC [1]: 184.4 mg/dL
IP [1]: 7.3 mg/dL
K [1]: 3.5 meq/L
LDH [1]: 184.2 IU/L
Na [1]: 140.6 meq/L
PL [1]: 120 mg/dL
RALB [1]: 3.2 g/dL
TBIL [1]: 0.022 mg/dL
TC [1]: 67.8 mg/dL
TG [1]: 33.6 mg/dL
TP [1]: 5.6 g/dL
gamma-GTP [1]: 1.6 IU/L
TERMINAL_BW [2]: 215.8 g
APTT [2]: 23.9 s
Bas [2]: 0%
Eos [2]: 0.8%
Fbg [2]: 302.8 mg/dL
Hb [2]: 13.1 g/dL
Ht [2]: 40%
Lym [2]: 75.2%
MCH [2]: 20.9 pg
MCHC [2]: 32.7%
MCV [2]: 64 fL
Mono [2]: 3.2%
Neu [2]: 19.4%
PT [2]: 15.6 s
Plat [2]: 119.8 x10_4/uL
RBC [2]: 626.8 x10_4/ul
Ret [2]: 7.4%
WBC [2]: 74.1 x10_2/uL
KIDNEY_L [2]: 0.9 g
KIDNEY_R [2]: 0.9 g
KIDNEY_TOTAL [2]: 1.8 g
LIVER [2]: 9 g
A/G [2]: 1.2
ALP [2]: 1323.6 IU/L
ALT [2]: 41.6 IU/L
AST [2]: 86 IU/L
BUN [2]: 11.6 mg/dL
CRE [2]: 0.2 mg/dL
Ca [2]: 10.6 mg/dL
Cl [2]: 108.4 meq/L
DBIL [2]: 0 mg/dL
GLC [2]: 191 mg/dL
IP [2]: 8.2 mg/dL
K [2]: 3.5 meq/L
LDH [2]: 212 IU/L
Na [2]: 140.4 meq/L
PL [2]: 126 mg/dL
RALB [2]: 3.2 g/dL
TBIL [2]: 0.018 mg/dL
TC [2]: 70.2 mg/dL
TG [2]: 36 mg/dL
TP [2]: 5.7 g/dL
gamma-GTP [2]: 1.2 IU/L
TERMINAL_BW [3]: 211.1 g
APTT [3]: 22.3 s
Bas [3]: 0%
Eos [3]: 0.8%
Fbg [3]: 349.8 mg/dL
Hb [3]: 12.9 g/dL
Ht [3]: 38.8%
Lym [3]: 73.2%
MCH [3]: 20.6 pg
MCHC [3]: 33.4%
MCV [3]: 61.8 fL
Mono [3]: 2%
Neu [3]: 22%
PT [3]: 15.8 s
Plat [3]: 120.3 x10_4/uL
RBC [3]: 630.2 x10_4/ul
Ret [3]: 7.2%
WBC [3]: 77.3 x10_2/uL
KIDNEY_L [3]: 1 g
KIDNEY_R [3]: 1 g
KIDNEY_TOTAL [3]: 2 g
LIVER [3]: 8.6 g
A/G [3]: 1.2
ALP [3]: 1618.2 IU/L
ALT [3]: 43.8 IU/L
AST [3]: 87.2 IU/L
BUN [3]: 9.8 mg/dL
CRE [3]: 0.2 mg/dL
Ca [3]: 10.7 mg/dL
Cl [3]: 107.2 meq/L
DBIL [3]: 0 mg/dL
GLC [3]: 165.2 mg/dL
IP [3]: 8.3 mg/dL
K [3]: 3.7 meq/L
LDH [3]: 168.2 IU/L
Na [3]: 140.2 meq/L
PL [3]: 121.6 mg/dL
RALB [3]: 3.2 g/dL
TBIL [3]: 0.022 mg/dL
TC [3]: 73.8 mg/dL
TG [3]: 23.8 mg/dL
TP [3]: 5.9 g/dL
gamma-GTP [3]: 1.2 IU/L
TERMINAL_BW [4]: 225.6 g
APTT [4]: 22.2 s
Bas [4]: 0%
Eos [4]: 0.8%
Fbg [4]: 293 mg/dL
Hb [4]: 13.9 g/dL
Ht [4]: 41.4%
Lym [4]: 76.2%
MCH [4]: 20.6 pg
MCHC [4]: 33.6%
MCV [4]: 61.2 fL
Mono [4]: 3%
Neu [4]: 18.6%
PT [4]: 16 s
Plat [4]: 115 x10_4/uL
RBC [4]: 676.8 x10_4/ul
Ret [4]: 6.5%
WBC [4]: 97.8 x10_2/uL
KIDNEY_L [4]: 1 g
KIDNEY_R [4]: 1 g
KIDNEY_TOTAL [4]: 2 g
LIVER [4]: 10.1 g
A/G [4]: 1.2
ALP [4]: 1662.4 IU/L
ALT [4]: 42.8 IU/L
AST [4]: 73.4 IU/L
BUN [4]: 15.6 mg/dL
CRE [4]: 0.2 mg/dL
Ca [4]: 10.9 mg/dL
Cl [4]: 106 meq/L
DBIL [4]: 0.006 mg/dL
GLC [4]: 191.2 mg/dL
IP [4]: 8.8 mg/dL
K [4]: 4.1 meq/L
LDH [4]: 168.4 IU/L
Na [4]: 142.2 meq/L
PL [4]: 135.4 mg/dL
RALB [4]: 3 g/dL
TBIL [4]: 0.006 mg/dL
TC [4]: 78.2 mg/dL
TG [4]: 60.6 mg/dL
TP [4]: 5.5 g/dL
gamma-GTP [4]: 1.4 IU/L
TERMINAL_BW [5]: 215.6 g
APTT [5]: 22.6 s
Bas [5]: 0%
Eos [5]: 1%
Fbg [5]: 278 mg/dL
Hb [5]: 12.3 g/dL
Ht [5]: 37.4%
Lym [5]: 67.2%
MCH [5]: 20.1 pg
MCHC [5]: 32.9%
MCV [5]: 60.9 fL
Mono [5]: 3%
Neu [5]: 28%
PT [5]: 15.9 s
Plat [5]: 113.5 x10_4/uL
RBC [5]: 614.2 x10_4/ul
Ret [5]: 7.9%
WBC [5]: 58.9 x10_2/uL
KIDNEY_L [5]: 0.9 g
KIDNEY_R [5]: 0.9 g
KIDNEY_TOTAL [5]: 1.8 g
LIVER [5]: 9.1 g
A/G [5]: 1.3
ALP [5]: 1241.4 IU/L
ALT [5]: 43.8 IU/L
AST [5]: 93.6 IU/L
BUN [5]: 13.8 mg/dL
CRE [5]: 0.1 mg/dL
Ca [5]: 10 mg/dL
Cl [5]: 104.4 meq/L
DBIL [5]: 0 mg/dL
GLC [5]: 202.8 mg/dL
IP [5]: 7.2 mg/dL
K [5]: 3.2 meq/L
LDH [5]: 215.8 IU/L
Na [5]: 136.8 meq/L
PL [5]: 109.8 mg/dL
RALB [5]: 3.1 g/dL
TBIL [5]: 0.014 mg/dL
TC [5]: 66.8 mg/dL
TG [5]: 20 mg/dL
TP [5]: 5.4 g/dL
gamma-GTP [5]: 1.8 IU/L
TERMINAL_BW [6]: 216 g
APTT [6]: 22.3 s
Bas [6]: 0%
Eos [6]: 0.2%
Fbg [6]: 329.2 mg/dL
Hb [6]: 13.1 g/dL
Ht [6]: 39.7%
Lym [6]: 58.6%
MCH [6]: 20.6 pg
MCHC [6]: 33.1%
MCV [6]: 62.3 fL
Mono [6]: 3.6%
Neu [6]: 35.6%
PT [6]: 15.5 s
Plat [6]: 123.7 x10_4/uL
RBC [6]: 636.8 x10_4/ul
Ret [6]: 7.6%
WBC [6]: 75.8 x10_2/uL
KIDNEY_L [6]: 1 g
KIDNEY_R [6]: 1 g
KIDNEY_TOTAL [6]: 1.9 g
LIVER [6]: 9.5 g
A/G [6]: 1.3
ALP [6]: 1423 IU/L
ALT [6]: 46.2 IU/L
AST [6]: 111.4 IU/L
BUN [6]: 13.8 mg/dL
CRE [6]: 0.2 mg/dL
Ca [6]: 10.4 mg/dL
Cl [6]: 108.2 meq/L
DBIL [6]: 0 mg/dL
GLC [6]: 206.6 mg/dL
IP [6]: 6.8 mg/dL
K [6]: 3.5 meq/L
LDH [6]: 212.6 IU/L
Na [6]: 140.2 meq/L
PL [6]: 127 mg/dL
RALB [6]: 3.4 g/dL
TBIL [6]: 0.016 mg/dL
TC [6]: 72 mg/dL
TG [6]: 22.2 mg/dL
TP [6]: 6.1 g/dL
gamma-GTP [6]: 1.4 IU/L
TERMINAL_BW [7]: 212.2 g
APTT [7]: 24.6 s
Bas [7]: 0%
Eos [7]: 0%
Fbg [7]: 335.8 mg/dL
Hb [7]: 12.9 g/dL
Ht [7]: 38.7%
Lym [7]: 69.4%
MCH [7]: 20.3 pg
MCHC [7]: 33.4%
MCV [7]: 60.9 fL
Mono [7]: 1.4%
Neu [7]: 28.6%
PT [7]: 15.5 s
Plat [7]: 120.5 x10_4/uL
RBC [7]: 634.8 x10_4/ul
Ret [7]: 7.6%
WBC [7]: 51.8 x10_2/uL
KIDNEY_L [7]: 0.9 g
KIDNEY_R [7]: 0.9 g
KIDNEY_TOTAL [7]: 1.8 g
LIVER [7]: 8.7 g
A/G [7]: 1.3
ALP [7]: 1474.4 IU/L
ALT [7]: 38.8 IU/L
AST [7]: 86.2 IU/L
BUN [7]: 12 mg/dL
CRE [7]: 0.2 mg/dL
Ca [7]: 10.8 mg/dL
Cl [7]: 105 meq/L
DBIL [7]: 0 mg/dL
GLC [7]: 193.6 mg/dL
IP [7]: 7.1 mg/dL
K [7]: 3.5 meq/L
LDH [7]: 182.8 IU/L
Na [7]: 139 meq/L
PL [7]: 141 mg/dL
RALB [7]: 3.4 g/dL
TBIL [7]: 0.026 mg/dL
TC [7]: 77.4 mg/dL
TG [7]: 30.6 mg/dL
TP [7]: 6.2 g/dL
gamma-GTP [7]: 1.2 IU/L
TERMINAL_BW [8]: 224.5 g
APTT [8]: 21.6 s
Bas [8]: 0%
Eos [8]: 0.4%
Fbg [8]: 370.4 mg/dL
Hb [8]: 13.9 g/dL
Ht [8]: 41.2%
Lym [8]: 70.2%
MCH [8]: 20.7 pg
MCHC [8]: 33.6%
MCV [8]: 61.4 fL
Mono [8]: 3.2%
Neu [8]: 24%
PT [8]: 16.3 s
Plat [8]: 124.1 x10_4/uL
RBC [8]: 670.4 x10_4/ul
Ret [8]: 7%
WBC [8]: 103.6 x10_2/uL
KIDNEY_L [8]: 0.9 g
KIDNEY_R [8]: 1 g
KIDNEY_TOTAL [8]: 1.9 g
LIVER [8]: 9.4 g
A/G [8]: 1.2
ALP [8]: 1552.6 IU/L
ALT [8]: 44.8 IU/L
AST [8]: 76.2 IU/L
BUN [8]: 16.4 mg/dL
CRE [8]: 0.2 mg/dL
Ca [8]: 11.2 mg/dL
Cl [8]: 104.4 meq/L
DBIL [8]: 0 mg/dL
GLC [8]: 186.4 mg/dL
IP [8]: 8.4 mg/dL
K [8]: 4 meq/L
LDH [8]: 180 IU/L
Na [8]: 141.6 meq/L
PL [8]: 129.8 mg/dL
RALB [8]: 3.1 g/dL
TBIL [8]: 0.018 mg/dL
TC [8]: 75 mg/dL
TG [8]: 38.8 mg/dL
TP [8]: 5.6 g/dL
gamma-GTP [8]: 1.4 IU/L
